Read-outs that look alike come from different tables or passages of the source.
Tests used:
muscarinic receptors [1] = assay: Radio ligand binding: displacement of 3H-Oxotremorine-M (muscarinic agonist) from rat cerebral cortex membranes; parameters: species or system Hooded Lister rats; settings: displacement of 2 nM 3H-OXO-M, 2 mM magnesium chloride, 37° C., 30 min, tested as oxalate salts
muscarinic receptors [2] = format: binding, Hooded Lister rats; settings: displacement of 0.27 nM 3H-QNB; rat cerebral cortex; 37° C., 30 min; tested as oxalate salts
[3] = Lambrecht and Mutschler, Arzneim. forsh. 24 (11) 1725, 1974; cited from earlier work

SMILES | IC50 (muscarinic receptors [1]) [µM] | IC50 (muscarinic receptors [2]) [µM] | cholinergic activity [3]
Cc1noc([C@H]2C[C@@H]3CCN(C3)C2)n1 (relative stereo) [E3, (±) exo-3-(3-Methyl-1,2,4-oxadiazol-5-yl)-1-azabicyclo [3.2.1]octane] | 0.025 | 1.84 | 
c1nnc(C2CN3CCC2CC3)o1 (racemic) [E8, (±) 3-(1,3,4-Oxadiazol-2-y.)-1-azabicyclo[2.2.2]octane] | 2.8 | 63 | 
Cc1nnc(C2CN3CCC2CC3)o1 (racemic) [E4, (±) 3-(5-Methyl-1,3,4-oxadiazol-2-yl)-1-azabicyclo [2.2.2]octane] | 1 | 15 | 
Cc1noc([C@@H]2CN3CC[C@@H]2C3)n1 (relative stereo) [E10, (±) exo-3-(3-Methyl-1,2,4-oxadiazol-5-yl)-1-azabicyclo [2.2.1]heptane] | 0.0035 | 1.1 | 
c1coc(C2CN3CCC2CC3)n1 (racemic) [E5, (±) 3-(1,3-Oxazol-2-yl)-1-azabicyclo[2.2.2]octane] | 0.63 | 27 | 
c1coc([C@H]2C[C@@H]3CCCN(C3)C2)n1 (relative stereo) [E9, (±) exo-3-(1,3-Oxazol-2-yl 1-azabicyclo[3.3.1]nonane] | 0.16 | 3.1 | 
Cc1noc(C2CN3CCC2CC3)n1 (racemic) [E1, (±) 3-(3-Methyl-1,2,4-oxadiazol-5-yl)-1-azabicyclo [2.2.2]octane] | 0.015 | 1.84 | 
COC(=O)C1CN2CCC1CC2 (stereo not shown) [3-Methoxycarbonylquinuclidine] |  |  | possess cholinergic activity
Cc1noc([C@@H]2CN3CCC[C@@H]2C3)n1 (relative stereo) [E6, (±) exo-6-(3-Methyl-1,2,4-oxadiazol-5-yl)-1-azabicyclo [3.2.1]octane] | 0.041 | 2.3 | 
Cc1nc(C2CN3CCC2CC3)no1 (racemic) [E2, (±) 3-(5-Methyl-1,2,4-oxadiazol-3-yl)-1-azabicyclo [2.2.2]octane] | 1.1 | 17 | 

Reference: patent publication US4968691A (priority 1986, dated 1990)
